Laboratory results taken from PubChem BioAssay AID1259407 (Chemical Carcinogenesis Research Information System (CCRIS), 2018).
Activity calls are given as the source filed them. The rule behind the calls is not given here.

Tested on: CCRIS mutagenicity, Ames/micronucleus/aberration tests
Experiment: CCRIS mutagenicity studies
[1] = Test System: AMES SALMONELLA TYPHIMURIUM, Strain/Indicator: TA98, Metabolic Activation: NONE, Method: STANDARD PLATE
[2] = Test System: AMES SALMONELLA TYPHIMURIUM, Strain/Indicator: TA98, Metabolic Activation: RAT, LIVER, S-9, AROCLOR 1254, Method: STANDARD PLATE
[3] = Test System: AMES SALMONELLA TYPHIMURIUM, Strain/Indicator: TA100, Metabolic Activation: NONE, Method: STANDARD PLATE
[4] = Test System: AMES SALMONELLA TYPHIMURIUM, Strain/Indicator: TA100, Metabolic Activation: RAT, LIVER, S-9, AROCLOR 1254, Method: STANDARD PLATE
[5] = Test System: AMES SALMONELLA TYPHIMURIUM, Strain/Indicator: TA1535, Metabolic Activation: NONE, Method: PREINCUBATION
[6] = Test System: AMES SALMONELLA TYPHIMURIUM, Strain/Indicator: TA1537, Metabolic Activation: NONE, Method: PREINCUBATION

Structure (SMILES): C[C@H]1[C@H](C)CC[C@]2(C(=O)O[C@@H]3O[C@H](CO[C@@H]4O[C@H](CO)[C@@H](O[C@@H]5O[C@@H](C)[C@H](O)[C@@H](O)[C@H]5O)[C@H](O)[C@H]4O)[C@@H](O)[C@H](O)[C@H]3O)CC[C@]3(C)C(=CC[C@@H]4[C@@]5(C)C[C@@H](O)[C@H](O)[C@@](C)(CO)[C@@H]5CC[C@]43C)[C@H]12
- mutagenic call (End Point: IN VITRO CHROMOSOMAL ABERRATIONS, Test System: CHL CELLS, Metabolic Activation: NONE): inactive; negative
- mutagenic call (End Point: IN VITRO CHROMOSOMAL ABERRATIONS, Test System: CHL CELLS, Metabolic Activation: RAT, LIVER, S-9, AROCLOR 1254): inactive; negative
- mutagenic call (End Point: IN VIVO MICRONUCLEUS, Test System: BONE MARROW, Species: MOUSE, Strain/Sex: ICR, Route: GAVAGE): inactive; negative
- mutagenic call [1]: inactive; negative
- mutagenic call [2]: inactive; negative
- mutagenic call [3]: inactive; negative
- mutagenic call [4]: inactive; negative
- mutagenic call (Test System: AMES SALMONELLA TYPHIMURIUM, Strain/Indicator: TA1535, Metabolic Activation: NONE, Method: STANDARD PLATE): inactive; negative
- mutagenic call (Test System: AMES SALMONELLA TYPHIMURIUM, Strain/Indicator: TA1535, Metabolic Activation: RAT, LIVER, S-9, AROCLOR 1254, Method: STANDARD PLATE): inactive; negative
- mutagenic call (Test System: AMES SALMONELLA TYPHIMURIUM, Strain/Indicator: TA1537, Metabolic Activation: NONE, Method: STANDARD PLATE): inactive; negative
- mutagenic call (Test System: AMES SALMONELLA TYPHIMURIUM, Strain/Indicator: TA1537, Metabolic Activation: RAT, LIVER, S-9, AROCLOR 1254, Method: STANDARD PLATE): inactive; negative
- mutagenic call (Test System: E. COLI, Strain/Indicator: WP2UVRA, Metabolic Activation: RAT, LIVER, S-9, AROCLOR 1254, Method: STANDARD PLATE): inactive; negative
- mutagenic call (Test System: E.COLI, Strain/Indicator: WP2UVRA, Metabolic Activation: NONE, Method: STANDARD PLATE): inactive; negative

Structure (SMILES): O=Cc1ccc(O)cc1
- mutagenic call (Test System: AMES SALMONELLA TYPHIMURIUM, Strain/Indicator: TA98, Metabolic Activation: NONE, Method: PREINCUBATION): inactive; negative
- mutagenic call (Test System: AMES SALMONELLA TYPHIMURIUM, Strain/Indicator: TA98, Metabolic Activation: RAT LIVER S-9, PHENOBARBITAL AND BETA-NAPHTHOFLAVONE, Method: PREINCUBATION): inactive; negative
- mutagenic call (Test System: AMES SALMONELLA TYPHIMURIUM, Strain/Indicator: TA100, Metabolic Activation: NONE, Method: PREINCUBATION): inactive; negative
- mutagenic call (Test System: AMES SALMONELLA TYPHIMURIUM, Strain/Indicator: TA100, Metabolic Activation: RAT LIVER S-9, PHENOBARBITAL AND BETA-NAPHTHOFLAVONE, Method: PREINCUBATION): inactive; negative
- mutagenic call [5]: inactive; negative
- mutagenic call (Test System: AMES SALMONELLA TYPHIMURIUM, Strain/Indicator: TA1535, Metabolic Activation: RAT LIVER S-9, PHENOBARBITAL AND BETA-NAPHTHOFLAVONE, Method: PREINCUBATION): inactive; negative
- mutagenic call [6]: inactive; negative
- mutagenic call (Test System: AMES SALMONELLA TYPHIMURIUM, Strain/Indicator: TA1537, Metabolic Activation: RAT LIVER S-9, PHENOBARBITAL AND BETA-NAPHTHOFLAVONE, Method: PREINCUBATION): inactive; negative
- mutagenic call (Test System: AMES SALMONELLA TYPHIMURIUM, Strain/Indicator: TA1538, Metabolic Activation: NONE, Method: PREINCUBATION): inactive; negative
- mutagenic call (Test System: AMES SALMONELLA TYPHIMURIUM, Strain/Indicator: TA1538, Metabolic Activation: RAT LIVER S-9, PHENOBARBITAL AND BETA-NAPHTHOFLAVONE, Method: PREINCUBATION): inactive; negative
- mutagenic call (Test System: E.COLI, Strain/Indicator: WP2UVRA, Metabolic Activation: NONE, Method: PREINCUBATION): inactive; negative
- mutagenic call (Test System: E.COLI, Strain/Indicator: WP2UVRA, Metabolic Activation: RAT LIVER S-9, PHENOBARBITAL AND BETA-NAPHTHOFLAVONE, Method: PREINCUBATION): inactive; negative

Structure (SMILES): COc1ccc2cc1Oc1ccc(cc1)C[C@H]1c3cc(c(OC)cc3CCN1C)Oc1c(OC)c(OC)cc3c1[C@H](C2)N(C)CC3
- mutagenic call [1]: inactive; negative
- mutagenic call [2]: active; positive
- mutagenic call [3]: inactive; negative
- mutagenic call [4]: inactive; negative

Structure (SMILES): N[C@@H](CCC(=O)NNc1ccc(CO)cc1)C(=O)O
- mutagenic call (Test System: AMES SALMONELLA TYPHIMURIUM, Strain/Indicator: TA97, Metabolic Activation: NONE): active; positive
- mutagenic call (Test System: AMES SALMONELLA TYPHIMURIUM, Strain/Indicator: TA98, Metabolic Activation: NONE): inactive; negative
- mutagenic call (Test System: AMES SALMONELLA TYPHIMURIUM, Strain/Indicator: TA100, Metabolic Activation: NONE): inactive; negative
- mutagenic call (Test System: AMES SALMONELLA TYPHIMURIUM, Strain/Indicator: TA102, Metabolic Activation: NONE): inactive; negative
- mutagenic call (Test System: AMES SALMONELLA TYPHIMURIUM, Strain/Indicator: TA104, Metabolic Activation: MUSHROOM TYROSINASE, Method: PREINCUBATION): inactive; negative
- mutagenic call (Test System: AMES SALMONELLA TYPHIMURIUM, Strain/Indicator: TA104, Metabolic Activation: NONE): active; positive
- mutagenic call (Test System: AMES SALMONELLA TYPHIMURIUM, Strain/Indicator: TA104, Metabolic Activation: NONE, Method: PREINCUBATION): inactive; negative
- mutagenic call (Test System: AMES SALMONELLA TYPHIMURIUM, Strain/Indicator: TA104, Metabolic Activation: RAT, KIDNEY, HOMOGENATE, REDUCED GLUTATHIONE, Method: PREINCUBATION): active; positive
- mutagenic call (Test System: AMES SALMONELLA TYPHIMURIUM, Strain/Indicator: TA104, Metabolic Activation: RAT, KIDNEY, HOMOGENATE, Method: PREINCUBATION): active; positive
- mutagenic call (Test System: AMES SALMONELLA TYPHIMURIUM, Strain/Indicator: TA104, Metabolic Activation: RAT, LIVER, CYTOSOL, AROCLOR 1254, NADPH, Method: PREINCUBATION): active; positive
- mutagenic call (Test System: AMES SALMONELLA TYPHIMURIUM, Strain/Indicator: TA104, Metabolic Activation: RAT, LIVER, CYTOSOLIC FRACTION, AROCLOR 1254 (10%)): active; positive
- mutagenic call (Test System: AMES SALMONELLA TYPHIMURIUM, Strain/Indicator: TA104, Metabolic Activation: RAT, LIVER, MICROSOMES, AROCLOR 1254, Method: PREINCUBATION): inactive; negative
- mutagenic call (Test System: AMES SALMONELLA TYPHIMURIUM, Strain/Indicator: TA104, Metabolic Activation: RAT, LIVER, MICROSOMES, AROCLOR 1254 AND RAT, KIDNEY, HOMOGENATE, Method: PREINCUBATION): active; positive
- mutagenic call (Test System: AMES SALMONELLA TYPHIMURIUM, Strain/Indicator: TA1535, Metabolic Activation: NONE): inactive; negative
- mutagenic call [5]: inactive; negative
- mutagenic call (Test System: AMES SALMONELLA TYPHIMURIUM, Strain/Indicator: TA1535, Metabolic Activation: RAT, LIVER, S-9, AROCLOR 1254, Method: PREINCUBATION): inactive; negative
- mutagenic call (Test System: AMES SALMONELLA TYPHIMURIUM, Strain/Indicator: TA1537, Metabolic Activation: NONE): active; positive
- mutagenic call [6]: inactive; negative
- mutagenic call (Test System: AMES SALMONELLA TYPHIMURIUM, Strain/Indicator: TA1537, Metabolic Activation: RAT, LIVER, S-9, AROCLOR 1254, Method: PREINCUBATION): inactive; negative
- mutagenic call (Test System: AMES SALMONELLA TYPHIMURIUM, Strain/Indicator: TA1538, Metabolic Activation: NONE): inactive; negative

Structure (SMILES): [Cl][Sn]([c]1ccccc1)([c]1ccccc1)[c]1ccccc1
- mutagenic call (Test System: AMES SALMONELLA TYPHIMURIUM, Strain/Indicator: TA98, Metabolic Activation: NONE, Method: SUSPENSION/PLATE): inactive; negative
- mutagenic call (Test System: AMES SALMONELLA TYPHIMURIUM, Strain/Indicator: TA100, Metabolic Activation: NONE, Method: SUSPENSION/PLATE): inactive; negative
